Where two headings read alike, the source gives them in different places.
Key:
[1] = tested on: Key Grass and Sedge Weeds as well as Grass Crops; experiment: Post-emergent Test II herbicidal activity (Table 16); assay type: in vivo; details: post-emergence, 336 h, 14 d; for pest or weed control at 35 g/ha: 35 g ai/ha; for pest or weed control at 70 g/ha: 70 g ai/ha; for pest or weed control at 140 g/ha: 140 g ai/ha
Procedure, shortened: (§1)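 Visual injury rating (0 = none, 100 = complete kill) taken 14 d after treatment, relative to untreated plants. Compounds in acetone/DMSO with crop oil concentrate and Triton X-155 were track-sprayed at 187 L/ha onto seedlings at the first-second true leaf stage.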

[2] = tested on: Key Broadleaf Weed and Crop Species; experiment: Post-emergent Test II herbicidal activity (Table 15); assay type: in vivo; details: post-emergence, 336 h, 14 d; for pest or weed control at 35 g/ha: 35 g ai/ha; for pest or weed control at 70 g/ha: 70 g ai/ha; for pest or weed control at 140 g/ha: 140 g ai/ha
Procedure, shortened: as §1

[3] = Cyperus esculentus, yellow nutsedge (Cyperus esculentus), read-out: Visual Growth Reduction (%) 14 Days After Application, CYPES
[4] = Echinochloa crus-galli, barnyardgrass (Echinochloa crus-galli), read-out: Visual Growth Reduction (%) 14 Days After Application, ECHCG
[5] = Oryza sativa, rice (Oryza sativa), read-out: Visual Growth Reduction (%) 14 Days After Application, ORYSA
[6] = Setaria faberi, giant foxtail (Setaria faberi), read-out: Visual Growth Reduction (%) 14 Days After Application, SETFA
[7] = Triticum aestivum, wheat, spring (Triticum aestivum), read-out: Visual Growth Reduction (%) 14 Days After Application, TRZAS
[8] = Zea mays, maize, corn (Zea mays), read-out: Visual Growth Reduction (%) 14 Days After Application, ZEAMX
[9] = Abutilon theophrasti, velvetleaf (Abutilon theophrasti), read-out: Visual Growth Reduction (%) 14 Days After Application, ABUTH
[10] = Amaranthus retroflexus, redroot pigweed (Amaranthus retroflexus), read-out: Visual Growth Reduction (%) 14 Days After Application, AMARE
[11] = Brassica napus, oilseed rape, canola (Brassica napus), read-out: Visual Growth Reduction (%) 14 Days After Application, BRSNN
[12] = Chenopodium album, lambsquarters (Chenopodium album), read-out: Visual Growth Reduction (%) 14 Days After Application, CHEAL
[13] = Euphorbia heterophylla, wild poinsettia (Euphorbia heterophylla), read-out: Visual Growth Reduction (%) 14 Days After Application, EPHHL
[14] = Helianthus annuus, sunflower (Helianthus annuus), read-out: Visual Growth Reduction (%) 14 Days After Application, HELAN

SMILES | pest or weed control at 35 g/ha [1, 3] | pest or weed control at 70 g/ha [1, 3] | pest or weed control at 140 g/ha [1, 3] | pest or weed control at 35 g/ha [1, 4] | pest or weed control at 140 g/ha [1, 4] | pest or weed control at 35 g/ha [1, 5] | pest or weed control at 70 g/ha [1, 5] | pest or weed control at 140 g/ha [1, 5] | pest or weed control at 35 g/ha [1, 6] | pest or weed control at 70 g/ha [1, 6] | pest or weed control at 140 g/ha [1, 6] | pest or weed control at 35 g/ha [1, 7] | pest or weed control at 70 g/ha [1, 7] | pest or weed control at 140 g/ha [1, 7] | pest or weed control at 35 g/ha [1, 8] | pest or weed control at 70 g/ha [1, 8] | pest or weed control at 140 g/ha [1, 8] | pest or weed control at 35 g/ha [2, 9] | pest or weed control at 70 g/ha [2, 9] | pest or weed control at 140 g/ha [2, 9] | further results
Cn1ccc2cc(-c3nc(C(=O)O)c(Cl)c(N)c3F)ccc21 [Compound 1.01] | 0 to 29% | 0 to 29% | 0 to 29% | 0 to 29% | 75 to 84% | 0 to 29% | 0 to 29% | 0 to 29% | 0 to 29% | 0 to 29% | 0 to 29% | 0 to 29% | 0 to 29% | 0 to 29% | 0 to 29% | 95 to 100% | 85 to 94% | 0 to 29% | 0 to 29% | 30 to 44% | pest or weed control at 70 g/ha [2, 10]: 0 to 29%; pest or weed control at 140 g/ha [2, 10]: 45 to 59%; pest or weed control at 35 g/ha [2, 11]: 0 to 29%; pest or weed control at 70 g/ha [2, 11]: 0 to 29%; pest or weed control at 140 g/ha [2, 11]: 0 to 29%; pest or weed control at 35 g/ha [2, 12]: 0 to 29%; pest or weed control at 70 g/ha [2, 12]: 0 to 29%; pest or weed control at 140 g/ha [2, 12]: 0 to 29%; pest or weed control at 35 g/ha [2, 13]: 95 to 100%; pest or weed control at 70 g/ha [2, 13]: 95 to 100%; pest or weed control at 140 g/ha [2, 13]: 95 to 100%; pest or weed control at 35 g/ha [2, 14]: 0 to 29%; pest or weed control at 70 g/ha [2, 14]: 75 to 84%; pest or weed control at 140 g/ha [2, 14]: 75 to 84%; melting point: 166 to 168 °C
Nc1cc(-c2cc3[nH]ccc3cc2F)nc(C(=O)O)c1Cl [Compound 1.26] | 0 to 29% | 0 to 29% | 0 to 29% | 0 to 29% | 0 to 29% | 0 to 29% | 0 to 29% | 0 to 29% | 0 to 29% | 0 to 29% | 0 to 29% | 0 to 29% | 0 to 29% | 0 to 29% | 0 to 29% | 0 to 29% | 0 to 29% | 0 to 29% | 0 to 29% | 0 to 29% | pest or weed control at 70 g/ha [1, 4]: 0 to 29%; pest or weed control at 35 g/ha [2, 10]: 75 to 84%; pest or weed control at 70 g/ha [2, 10]: 85 to 94%; pest or weed control at 140 g/ha [2, 10]: 95 to 100%; pest or weed control at 35 g/ha [2, 11]: 85 to 94%; pest or weed control at 70 g/ha [2, 11]: 95 to 100%; pest or weed control at 140 g/ha [2, 11]: 95 to 100%; pest or weed control at 35 g/ha [2, 12]: 0 to 29%; pest or weed control at 70 g/ha [2, 12]: 30 to 44%; pest or weed control at 140 g/ha [2, 12]: 30 to 44%; pest or weed control at 35 g/ha [2, 13]: 0 to 29%; pest or weed control at 70 g/ha [2, 13]: 30 to 44%; pest or weed control at 140 g/ha [2, 13]: 45 to 59%; pest or weed control at 35 g/ha [2, 14]: 0 to 29%; pest or weed control at 70 g/ha [2, 14]: 0 to 29%; pest or weed control at 140 g/ha [2, 14]: 0 to 29%
COC(=O)c1nc(-c2ccc3cc[nH]c3c2F)nc(N)c1OC [Compound 1.34] | 0 to 29% | 0 to 29% | 0 to 29% | 0 to 29% | 0 to 29% | 0 to 29% | 0 to 29% | 0 to 29% | 0 to 29% | 0 to 29% | 60 to 74% | 0 to 29% | 0 to 29% | 30 to 44% | 0 to 29% | 0 to 29% | 0 to 29% | 0 to 29% | 0 to 29% | 0 to 29% | pest or weed control at 70 g/ha [1, 4]: 0 to 29%; pest or weed control at 35 g/ha [2, 10]: 0 to 29%; pest or weed control at 70 g/ha [2, 10]: 0 to 29%; pest or weed control at 140 g/ha [2, 10]: 30 to 44%; pest or weed control at 35 g/ha [2, 11]: 75 to 84%; pest or weed control at 70 g/ha [2, 11]: 85 to 94%; pest or weed control at 140 g/ha [2, 11]: 95 to 100%; pest or weed control at 35 g/ha [2, 12]: 0 to 29%; pest or weed control at 70 g/ha [2, 12]: 45 to 59%; pest or weed control at 140 g/ha [2, 12]: 60 to 74%; pest or weed control at 35 g/ha [2, 13]: 0 to 29%; pest or weed control at 70 g/ha [2, 13]: 0 to 29%; pest or weed control at 140 g/ha [2, 13]: 60 to 74%; pest or weed control at 35 g/ha [2, 14]: 85 to 94%; pest or weed control at 70 g/ha [2, 14]: 95 to 100%; pest or weed control at 140 g/ha [2, 14]: 95 to 100%

Reference: US20170050957A1, “4-AMINO-6-(HETEROCYCLIC)PICOLINATES AND 6-AMINO-2-(HETEROCYCLIC)PYRIMIDINE-4-CARBOXYLATES AND THEIR USE AS HERBICIDES” (Dow AgroSciences LLC, priority 2013, published 2017)
